Laboratory results published in US20070128217A1 (priority 2003, published 2007).

Assays:
[1] = tested on: control sera (pooled serum of ten healthy LUMC hospital workers; commercial negative donor pooled serum from the Dutch bloodbank); type: binding, human; set-up: Binding of Control serum LUMC to linear peptides / Binding of Control serum Blood-bank to linear peptides / Binding of Control serum LUMC to looped peptides / Binding of Control Serum Blood-Bank to Looped peptides / Binding of Control serum LUMC to linear peptides of the protein M of SARS-CoV Urbani / Binding of Control serum Blood-bank to linear peptides of the protein M of SARS-CoV Urbani / Binding of Control serum LUMC to looped peptides of the protein M of SARS-CoV Urbani / Binding of Control Serum Blood-Bank to Looped peptides of the protein M of SARS-CoV Urbani: unit not given here
[2] = tested on: rabbit serum obtained by immunizing a rabbit with the SARS-CoV strain Frankfurt 1; type: binding; set-up: Binding of a rabbit serum to linear peptides / Binding of a rabbit serum to looped peptides / Rabbit serum linear peptides / Rabbit serum looped peptides / Binding of a rabbit serum to linear peptides of protein N of SARS-CoV Urbani (Rabbit serum linear peptides) / Binding of a rabbit serum to looped/cyclic peptides of protein N of SARS-CoV Urbani (Rabbit serum looped peptides): unit not given here
[3] = tested on: antibodies in sera from SARS patients (sera 1a, 1b, 2, 6, 37, 62, London, SARS-yellow, SARS-green); type: binding, human; set-up: Binding of serum 6 to linear peptides of protein X1 of SARS-CoV Urbani / Binding of serum 37 to linear peptides of protein X1 of SARS-CoV Urbani / Binding of serum 6 to looped/cyclic peptide (PEPSCAN-ELISA) / Binding of serum 37 to looped/cyclic peptide (PEPSCAN-ELISA) / Binding of serum 37 to looped/cyclic peptides of protein X1 of SARS-CoV Urbani / Binding of serum 6 to linear peptides of protein X2 / Binding of serum 37 to linear peptides of protein X2 / Binding of serum 37 to looped/cyclic peptides of protein X2 of SARS-CoV Urbani / Binding of serum 6 to linear peptides of protein M of SARS-CoV Urbani / Binding of serum 37 to linear peptides of protein M of SARS-CoV Urbani / Binding of serum 6 to looped/cyclic peptides of protein M of SARS-CoV Urbani / Binding of serum 37 to looped/cyclic peptides of protein M of SARS-CoV Urbani / Binding of serum 6 to linear peptides of protein X3 of SARS-CoV Urbani / Binding of serum 37 to linear peptides of protein X3 of SARS-CoV Urbani / Binding of serum 37 to looped/cyclic peptides of protein X3 of SARS-CoV Urbani / Binding of serum 6 to linear peptides of protein X4 of SARS-CoV Urbani / Binding of serum 37 to linear peptides of protein X4 of SARS-CoV Urbani / Binding of serum 37 to looped/cyclic peptides of protein X4 of SARS-CoV Urbani / Binding of serum 6 to linear peptides of protein X5 of SARS-CoV Urbani / Binding of serum 37 to linear peptides of protein X5 of SARS-CoV Urbani / Binding of serum 37 to looped/cyclic peptides of protein X5 of SARS-CoV Urbani / Binding of serum 6 to linear peptides of protein N of SARS-CoV Urbani / Binding of serum 37 to linear peptides of protein N of SARS-CoV Urbani / Binding of serum 6 to linear peptide (PEPSCAN-ELISA) / Binding of serum 1a to looped/cyclic peptides of protein N of SARS-CoV Urbani / Binding of serum 1b to looped/cyclic peptides of protein N of SARS-CoV Urbani / Binding of serum 2 to looped/cyclic peptides of protein N of SARS-CoV Urbani / Binding of serum 6 to looped/cyclic peptides of protein N of SARS-CoV Urbani / Binding of serum 37 to looped/cyclic peptides of protein N of SARS-CoV Urbani / Binding of serum 62 to looped/cyclic peptides of protein N of SARS-CoV Urbani / Binding of serum London to looped/cyclic peptides of protein N of SARS-CoV Urbani / Binding of serum SARS-green to looped/cyclic peptides of protein N of SARS-CoV Urbani: unit not given here

## CDIKDLPKEITVATS
[1]
  Binding of Control Serum Blood-Bank to Looped peptides of the protein M of SARS-CoV Urbani: 0.6
  Binding of Control serum Blood-bank to linear peptides of the protein M of SARS-CoV Urbani: 0.4
  Binding of Control serum LUMC to linear peptides of the protein M of SARS-CoV Urbani: 0.2
  Binding of Control serum LUMC to looped peptides of the protein M of SARS-CoV Urbani: 0.7
[2]
  Rabbit serum linear peptides: 0.4
  Rabbit serum looped peptides: 0.6
[3]
  Binding of serum 1a to linear peptides of protein M of SARS-CoV Urbani: 0.6
  Binding of serum 1a to looped/cyclic peptides of protein M of SARS-CoV Urbani: 0.6
  Binding of serum 1b to linear peptides of protein M of SARS-CoV Urbani: 0.3
  Binding of serum 1b to looped/cyclic peptides of protein M of SARS-CoV Urbani: 0.3
  Binding of serum 2 to linear peptides of protein M of SARS-CoV Urbani: 0.3
  Binding of serum 2 to looped/cyclic peptides of protein M of SARS-CoV Urbani: 0.6
  Binding of serum 6 to linear peptides of protein M of SARS-CoV Urbani: 0.3
  Binding of serum 6 to looped/cyclic peptides of protein M of SARS-CoV Urbani: 0.5
  Binding of serum 37 to linear peptides of protein M of SARS-CoV Urbani: 0.5
  Binding of serum 37 to looped/cyclic peptides of protein M of SARS-CoV Urbani: 0.6
  Binding of serum 62 to linear peptides of protein M of SARS-CoV Urbani: 0.7
  Binding of serum 62 to looped/cyclic peptides of protein M of SARS-CoV Urbani: 0.6
  Binding of serum London to linear peptides of protein M of SARS-CoV Urbani: 0.3
  Binding of serum London to looped/cyclic peptides of protein M of SARS-CoV Urbani: 0.2
  Binding of serum SARS-green to linear peptides of protein M of SARS-CoV Urbani: 0.2
  Binding of serum SARS-green to looped/cyclic peptides of protein M of SARS-CoV Urbani: 0.4
  Binding of serum SARS-yellow to linear peptides of protein M of SARS-CoV Urbani: 0.0
  Binding of serum SARS-yellow to looped/cyclic peptides of protein M of SARS-CoV Urbani: 0.6

## NRFLYIIKLVFLWLL
[1]
  Binding of Control Serum Blood-Bank to Looped peptides of the protein M of SARS-CoV Urbani: 0.7
  Binding of Control serum Blood-bank to linear peptides of the protein M of SARS-CoV Urbani: 0.7
  Binding of Control serum LUMC to linear peptides of the protein M of SARS-CoV Urbani: 0.3
  Binding of Control serum LUMC to looped peptides of the protein M of SARS-CoV Urbani: 0.6
[2]
  Rabbit serum linear peptides: 0.4
  Rabbit serum looped peptides: 0.3
[3]
  Binding of serum 1a to linear peptides of protein M of SARS-CoV Urbani: 0.7
  Binding of serum 1b to linear peptides of protein M of SARS-CoV Urbani: 0.5
  Binding of serum 2 to linear peptides of protein M of SARS-CoV Urbani: 0.5
  Binding of serum 6 to linear peptides of protein M of SARS-CoV Urbani: 0.3
  Binding of serum 37 to linear peptides of protein M of SARS-CoV Urbani: 0.7
  Binding of serum 62 to linear peptides of protein M of SARS-CoV Urbani: 0.7
  Binding of serum London to linear peptides of protein M of SARS-CoV Urbani: 0.3
  Binding of serum SARS-green to linear peptides of protein M of SARS-CoV Urbani: 0.3
  Binding of serum SARS-yellow to linear peptides of protein M of SARS-CoV Urbani: 0.1
  Recognition of the peptide by sera of SARS-CoV infected individuals, and form (linear, looped/cyclic) in which it is recognized: recognized in looped/cyclic form

## EGDGISTPKLKEDYQ
[1]
  Binding of Control Serum Blood-Bank to Looped peptides: 0.4
  Binding of Control serum Blood-bank to linear peptides: 0.2
  Binding of Control serum LUMC to linear peptides: 0.3
  Binding of Control serum LUMC to looped peptides: 0.4
[2]
  Binding of a rabbit serum to linear peptides: 0.1
  Binding of a rabbit serum to looped peptides: 0.4
[3]
  Binding of serum 1a to linear peptides of protein X1 of SARS-CoV Urbani: 0.6
  Binding of serum 1a to looped/cyclic peptides of protein X1 of SARS-CoV Urbani: 0.4
  Binding of serum 1b to linear peptides of protein X1 of SARS-CoV Urbani: 0.3
  Binding of serum 1b to looped/cyclic peptides of protein X1 of SARS-CoV Urbani: 0.3
  Binding of serum 2 to linear peptides of protein X1 of SARS-CoV Urbani: 0.6
  Binding of serum 2 to looped/cyclic peptides of protein X1 of SARS-CoV Urbani: 0.2
  Binding of serum 6 to linear peptides of protein X1 of SARS-CoV Urbani: 0.3
  Binding of serum 6 to looped/cyclic peptides of protein X1 of SARS-CoV Urbani: 0.2
  Binding of serum 37 to linear peptides of protein X1 of SARS-CoV Urbani: 0.5
  Binding of serum 37 to looped/cyclic peptides of protein X1 of SARS-CoV Urbani: 0.3
  Binding of serum 62 to linear peptides of protein X1 of SARS-CoV Urbani: 0.4
  Binding of serum 62 to looped/cyclic peptides of protein X1 of SARS-CoV Urbani: 0.3
  Binding of serum London to linear peptides of protein X1 of SARS-CoV Urbani: 0.3
  Binding of serum London to looped/cyclic peptides of protein X1 of SARS-CoV Urbani: 0.2
  Binding of serum SARS-green to linear peptides of protein X1 of SARS-CoV Urbani: 0.2
  Binding of serum SARS-green to looped/cyclic peptides of protein X1 of SARS-CoV Urbani: 0.2
  Binding of serum SARS-yellow to linear peptides of protein X1 of SARS-CoV Urbani: 0.2
  Binding of serum SARS-yellow to looped/cyclic peptides of protein X1 of SARS-CoV Urbani: 0.1
